Results on 23 compounds are retold here after patent US20250268903A1, “RXFP1 AGONISTS” (BRISTOL-MYERS SQUIBB COMPANY, priority 2021, published 2025).

As a reminder, the EC50 is the midpoint of the concentration-response curve. Read a high EC50 as a less potent agent.

The assay concerns the target T1, human RXFP1 (Homo sapiens, UniProt Q9HBX9).
T1 construct: expressed in transfected cells
T1 sequence (Q9HBX9 1-757): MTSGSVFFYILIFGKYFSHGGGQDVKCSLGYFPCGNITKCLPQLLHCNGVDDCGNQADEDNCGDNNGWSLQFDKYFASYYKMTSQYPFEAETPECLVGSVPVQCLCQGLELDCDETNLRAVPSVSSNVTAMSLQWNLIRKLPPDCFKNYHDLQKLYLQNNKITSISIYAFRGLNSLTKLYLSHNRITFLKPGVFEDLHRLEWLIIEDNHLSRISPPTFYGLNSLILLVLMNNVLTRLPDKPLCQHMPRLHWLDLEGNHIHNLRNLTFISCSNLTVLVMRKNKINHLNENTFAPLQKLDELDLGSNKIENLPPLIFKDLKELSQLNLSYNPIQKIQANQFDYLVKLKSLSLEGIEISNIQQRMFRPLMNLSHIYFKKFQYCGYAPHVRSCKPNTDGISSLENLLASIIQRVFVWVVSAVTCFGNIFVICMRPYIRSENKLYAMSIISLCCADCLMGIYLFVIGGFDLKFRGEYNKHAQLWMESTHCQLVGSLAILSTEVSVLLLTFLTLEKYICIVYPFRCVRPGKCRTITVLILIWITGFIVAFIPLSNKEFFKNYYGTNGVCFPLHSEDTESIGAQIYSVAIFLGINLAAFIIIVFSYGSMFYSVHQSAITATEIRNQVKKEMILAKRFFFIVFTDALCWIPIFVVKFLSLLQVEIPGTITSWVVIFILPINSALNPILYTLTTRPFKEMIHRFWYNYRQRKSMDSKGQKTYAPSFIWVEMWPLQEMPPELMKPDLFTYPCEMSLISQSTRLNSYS
The experiment in a line: hRXFP1 HEK293 cAMP assay (HTRF). Format: cell-based. To be noted: HEK293 cells stably expressing human RXFP1, 30 min at room temperature. A digest of the protocol: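 Intracellular cAMP was read by HTRF, with potency fitted to a 4-parameter logistic curve. Compound exposure (0.010 nM–50 μM final, 2% DMSO) lasted 30 min at room temperature. Cells were hRXFP1-HEK293 at 1500 per well in IBMX-containing (0.5 mM) HEPES-buffered HBSS.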
In general terms: Changes in cAMP serve as a functional read-out for many G protein-coupled receptors.

`COc1ccc(C2CCCC(O)C2)cc1C(=O)N[C@@H]1C2CCC(/C2=C/C(F)(F)F)[C@@H]1C(=O)Nc1ccc(F)c(C(F)(F)F)c1` (single isomer, unassigned) [Example 38] registered a concentration giving a half-maximal response (EC50) of 250 nM.
In the case of `COc1ccc(C2CCCCC2O)cc1C(=O)N[C@@H]1C2CCC(/C2=C/C(F)(F)F)[C@@H]1C(=O)Nc1ccc(F)c(C(F)(F)F)c1` (mixture of isomers) [Example 59] it was 1270 nM; in that of `COc1ccc(C2CCCC(NC(=O)C3CCOCC3)C2)cc1C(=O)N[C@@H]1C2CCC(/C2=C/C(F)(F)F)[C@@H]1C(=O)Nc1ccc(F)c(C(F)(F)F)c1` (single isomer, unassigned) [Example 49], 833 nM.
Regarding `COc1ccc(CCCC(F)(F)F)cc1C(=O)NC1C2CCC(/C2=C/C2CCC2)[C@@H]1C(=O)Nc1ccc(F)c(C(F)(F)F)c1` (some centres unmarked) [Example 195, (7Z)-7-(cyclobutylmethylidene)-N-[4-fluoro-3-(trifluoromethyl)phe-nyl]-3-[2-methoxy-5-(4,4,4-trifluorobutyl)benza-mido]bicyclo[2.2.1] heptane-2-carboxamide], the response was half-maximal at 59 nM (EC50).
In turn, `COc1ccc(CN2O[C@H]3COC[C@H]3C2=O)cc1C(=O)N[C@H]1[C@@H](C(=O)Nc2ccc(F)c(C(F)(F)F)c2)[C@H]2CC[C@@H]1/C2=C\C1CC1` [Example 299, (1R,2S,3R,4R,7Z)-3-(5-{[(3aR,6aR)-3-oxo-hexahydrofuro[3,4-d][1,2]oxazol-2-yl]methyl}-2-methoxybenzamido)-7-(cyclopropylmethylidene)-N-[4-fluoro-3-(trifluoromethyl)phenyl]bicyclo[2.2.1]heptane-2-carboxamide] yielded an EC50 of 116 nM.
Compound `COc1ccc(S(=O)(=O)Cc2ccccc2)cc1C(=O)N[C@@H]1C2CCC(/C2=C/C(F)(F)F)[C@@H]1C(=O)Nc1ccc(F)c(C(F)(F)F)c1` (stereo partly drawn) [Example 3, (2S,3R,7Z)-N-[4-fluoro-3-(trifluoromethyl)phe-nyl]-3-(2-methoxy-5-phenylmethanesulfo-nylbenzamido)-7-(2,2,2-trifluoroethylidene)bi-cyclo[2.2.1]heptane-2-carboxamide] gave an EC50 of 560 nM.
With `COc1ccc(COC[C@@H]2C[C@@H]2CO)cc1C(=O)N[C@H]1[C@@H](C(=O)Nc2ccc(F)c(C(F)(F)F)c2)[C@H]2CC[C@@H]1/C2=C\C1CC1` [Example 293, (1R,2S,3R,4R,7Z)-7-(cyclopropyl-methylidene)-N-[4-fluoro-3-(trifluoromethyl)phonyl]-3-[5-({[(1R,2S)-2-(hydroxymethyl)cyclopropyl]methoxy}methyl)-2-methoxybenzamido] bicyclo[2.2.1]heptane-2-carboxamide], the EC50 is 67.1 nM.
Compound `COC(=O)OCC/C=C/c1ccc(OC)c(C(=O)N[C@H]2[C@@H](C(=O)Nc3ccc(F)c(C(F)(F)F)c3)[C@H]3CC[C@@H]2C3=C(C)C)c1` [Example 33, (E)-4-(3-(((1R,2R,3S,4R)-3-((4-fluoro-3-(trifluoromethyl)phenyl)carbamoyl)-7-(propan-2-ylidene)bicyclo[2.2.1]heptan-2-yl)carbamoyl)-4-methoxyphenyl) but-3-en-1-yl methyl carbonate] had an EC50 of 580 nM.
In the case of “(1R,4R,7Z)-7-(2- cyclobutylethylidene)- N-[4-fluoro-3- (trifluoromethyl) phenyl]-3-[5-(3- hydroxy-3- methylbutyl)-2- methoxybenzamido] bicyclo[2.2.1]heptane- 2-carboxamide [Example 262]” it was 197 nM; in that of `COc1ccc(C)cc1C(=O)N[C@@H]1C2CCC(C2=C(C)C)[C@@H]1C(=O)Nc1ccc(F)c(C(F)(F)F)c1` (stereo partly drawn) [Example 360, (2S,3R)-N-[4-fluoro-3-(trifluoromethyl)phenyl]-3-(2-methoxy-5-methylbenzamido)-7-(propan-2-ylidene)bicyclo[2.2.1] heptane-2-carboxamide], 2000 nM.
For the compound `COc1ccc(CO)cc1C(=O)N[C@H]1[C@@H](C(=O)Nc2ccc(F)c(C(F)(F)F)c2)[C@H]2CC[C@@H]1/C2=C\C(F)(F)F` [Example 10, (1R,2S,3R,4R,Z)—N-(4-fluoro-3-(trifluoromethyl)phenyl)-3-(5-(hydroxymethyl)-2-methoxybenzamido)-7-(2,2,2-trifluoroethylidene) bicyclo[2.2.1]heptane-2-carboxamide], the EC50 amounted to 962 nM.
For `COc1ccc(/C=C/C(N)=O)cc1C(=O)N[C@@H]1C2CCC(/C2=C/C(F)(F)F)[C@@H]1C(=O)Nc1ccc(F)c(C(F)(F)F)c1` (stereo partly drawn) [Example 132, (2S,3R,7Z)-3-{5-[(1E)-2-carbamoyleth-1-en-1-yl]-2-methoxybenzamido}-N-[4-fluoro-3-(trifluoromethyl)phe-nyl]-7-(2,2,2-trifluoroethylidene)bi-cyclo[2.2.1]heptane-2-carboxamide], a half-maximal effect (EC50) was put at 380 nM.
As to `COc1ccc(/C=C/C(=O)N2CC[C@H](O)C2)cc1C(=O)N[C@@H]1C2CCC(/C2=C/C(F)(F)F)[C@@H]1C(=O)Nc1ccc(F)c(C(F)(F)F)c1` (stereo partly drawn) [Example 130, (2S,3R,7Z)-N-[4-fluoro-3-(trifluoromethyl)phe-nyl]-3-{5-[(1E)-3-[(3S)-3-hydroxypyrrolidin-1-yl]-3-oxoprop-1-en-1-yl]-2-methoxybenzamido}-7-(2,2,2-trifluoroethylidene)bi-cyclo[2.2.1]heptane-2-carboxamide], the midpoint of the response, the EC50, lay at 114 nM.
Consider `COc1ccc(C2CCCC(O)C2)cc1C(=O)N[C@@H]1C2CCC(/C2=C/C(F)(F)F)[C@@H]1C(=O)Nc1ccc(F)c(C(F)(F)F)c1` (single isomer, unassigned) [Example 37], for which the midpoint of the response, the EC50, lay at 780 nM.
As for `COc1ccc(CCCO)cc1C(=O)N[C@@H]1C2CCC(/C2=C/C(F)(F)F)[C@@H]1C(=O)Nc1ccc(F)c(C(F)(F)F)c1` (stereo partly drawn) [Example 84, (2S,3R,7Z)-N-[4-fluoro-3-(trifluoromethyl)phe-nyl]-3-[5-(3-hydroxypropyl)-2-methoxybenzamido]-7-(2,2,2-trifluoroethylidene)bi-cyclo[2.2.1]heptane-2-carboxamide], the EC50 turned out to be 67 nM.
Consider `COc1ccc(CCC(C)(C)O)cc1C(=O)N[C@H]1[C@@H](C(=O)NCC(C)(C)C)[C@H]2CC[C@@H]1/C2=C\C1CC1` [Example 271, (1R,2S,3R,4R,7Z)-7-(cyclopropylmethyl-idene)-N-(2,2-dimethylpropyl)-3-[5-(3-hydroxy-3-methylbutyl)-2-methoxybenzamido] bicyclo[2.2.1]heptane-2-carboxamide], for which the EC50 came out at 264 nM.
As to `COc1ccc(CCCN(C(=O)OC(C)(C)C)C2CCC2)cc1C(=O)N[C@@H]1C2CCC(/C2=C/C(F)(F)F)[C@@H]1C(=O)Nc1ccc(F)c(C(F)(F)F)c1` (some centres unmarked) [Example 120], the EC50 came to 304 nM.
The compound `CCOC(=O)C1CCC(c2ccc(OC)c(C(=O)NC3C4CCC(/C4=C/C(F)(F)F)[C@@H]3C(=O)Nc3ccc(F)c(C(F)(F)F)c3)c2)CC1` (stereo partly drawn) [Example 143, ethyl 4-(3-{[(2R,3S,7Z)-3-{[4-fluoro-3-(trifluoromethyl)phe-nyl]carbamoyl}-7-(2,2,2-trifluoroethylidene)bi-cyclo[2.2.1]heptan-2-yl]carbamoyl}-4-methoxyphenyl)cyclo-hexane-1-carboxylate] yielded an EC50 of 202 nM.
Turning to `COC(=O)C1CC2(C1)CC(c1ccc(OC)c(C(=O)N[C@@H]3C4CCC(/C4=C/C(F)(F)F)[C@@H]3C(=O)Nc3ccc(F)c(C(F)(F)F)c3)c1)C2` (single isomer, unassigned) [Example 150], the EC50 was determined as 715 nM.
Regarding `COc1ccc(C(=O)N2C[C@H]3CNC[C@H]3C2)cc1C(=O)N[C@H]1[C@@H](C(=O)Nc2ccc(F)c(C(F)(F)F)c2)[C@H]2CC[C@@H]1/C2=C\C1CC1` [Example 249], the EC50 was found to be 432 nM.
The compound `COc1ccc(C2CC3CC(O)CC32)cc1C(=O)N[C@H]1[C@@H](C(=O)Nc2ccc(F)c(C(F)(F)F)c2)[C@H]2CC[C@@H]1/C2=C\C1CC1` (single isomer, unassigned) [Example 343] gave an EC50 of 75.2 nM.
Compound `COc1ccc(CCCC(F)(F)F)cc1C(=O)NC1C2CCC(/C2=C/C(F)(F)F)[C@@H]1C(=O)Nc1ccc(F)c(C(F)(F)F)c1` (some centres unmarked) [Example 185, (7Z)-N-[4-fluoro-3-(trifluoromethyl)phe-nyl]-3-[2-methoxy-5-(4,4,4-trifluorobutyl)benza-mido]-7-(2,2,2-trifluoroethylidene)bi-cyclo[2.2.1]heptane-2-carboxamide] displayed an EC50 of 603 nM.
On to `COc1ccc(C(=O)N2CCC(S(C)(=O)=O)C2)cc1C(=O)N[C@H]1[C@@H](C(=O)Nc2ccc(F)c(C(F)(F)F)c2)[C@H]2CC[C@@H]1/C2=C\C1CC1` (some centres unmarked) [Example 256], for which a half-maximal effect (EC50) was put at 12.6 nM.
